Measured values: US20180066064A1, “BIOTHERAPEUTICS TARGETING GPR158 FOR CANCER” (University of Southern California, priority 2015, published 2018)

Columns and labels:
[1] = system: GPR158, AR and PSA expression in PHPECs; conditions: DHT 10 nM
Experimental: (§1) FIG. 2: Effects of an androgen on GPR158 expression. […] Total RNA (FIG. 2A-FIG. 2C) or cell lysates (FIG. 2E-FIG. 2G) were isolated and subjected to qRT-PCR and western blotting, respectively to estimate AR, PSA, GPR158 and beta-actin expression. […] Total RNA or the whole cell lysates were isolated and qRT-PCR and western blotting was performed, respectively to detect GPR158, AR, PSA and beta-actin levels (FIG. 2D) The mRNA level of the above indicated genes was considered 1 in cells grown in 10% FCS for calculating the relative fold difference of these genes in other experimental conditions. (FIG. 2A-FIG. 2H) The data represent three independent experiments.
(§2) For androgen starvation studies, LNCaP, PC-3, and DU145 cells were grown in 10% CSS.
(§3) Total RNA isolated from PCa cell lines with Aurum total RNA mini kit (Bio-Rad, Hercules, Calif.) was subjected to qRT-PCR analysis using iScript one-step RT-PCR kit with SYBR Green (Bio-Rad) on CFX96 Touch Real-Time PCR Detection System (Bio-Rad), according to the manufacturer's instructions. Relative quantification values of genes of interest were calculated as 2^−ΔΔCt by the comparative Ct method, where ΔΔCt=(Ct target mRNA of treated sample-Ct reference gene of treated sample)-(Ct target mRNA of control sample-Ct reference gene of control sample). The Inventors used beta-actin or GAPDH as a reference gene.
(§4) The whole cell lysates were prepared using radioimmunoprecipitation assay (RIPA) lysis buffer (50 mM Tris, 150 mM NaCl, 0.1% SDS, 0.5% Sodium Deoxycholate, 1% NP-40) spiked with a cocktail of protease inhibitors for 20 min, followed by centrifugation at 10,000 g for 10 min. Supernatants were collected and proteins in the extracts were separated by SDS-PAGE without boiling the samples and transferred to PVDF membranes. Membranes were probed with primary antibody against protein of interest and were developed by chemiluminescence with reagents Luminol enhancer solution and peroxide solution (GE Healthcare UK limited, Buckinghamshire, UK) and images were captured with Fujifilm imaging system (LAS-4000; Fujifilm, Tokyo, Japan). Protein loading was monitored by stripping and reprobing of the membrane with beta-actin antibody.

[2] = system: GPR158, AR and PSA expression in LNCaP cells; conditions: DHT 10 nM
Experimental: as §1, §2, §3, §4

[3] = system: GPR158, AR and PSA expression in C4-2B cells; conditions: DHT 10 nM
Experimental: as §1, §2, §3, §4

[4] = system: lenti-GPR158 LNCaP cells; experiment: Cell counting of lenti-GPR158 LNCaP cells after Dox treatment; assay type: cell-based, human; conditions: Dox 100 ng/mL
[5] = system: GPR158 driven by a doxycycline inducible promoter; AR, PSA; experiment: Dox induction in lenti-GPR158 LNCaP cells (western blotting); assay type: cell-based, human

SMILES	PSA mRNA and protein levels ([1]; PHPEC)	AR protein stabilization ([1]; PHPEC, 12 hrs)	increase of GPR158 mRNA and protein levels ([1]; PHPECs, 24 hrs, 10% CSS)	increase of GPR158 mRNA and protein levels ([2]; LNCaP cells, 24 hrs, 10% CSS)	PSA mRNA and protein levels ([2]; LNCaP)	AR protein stabilization ([2]; LNCaP, 12 hrs)	effect on GPR158 mRNA and protein levels ([3]; C4-2B cells, 10% CSS)	AR protein stabilization ([3]; C4-2B)	PSA mRNA and protein levels ([3]; C4-2B)	increase in cell numbers ([4]; 3 days, normalized for Dox alone on parental cells) [fold]	increase in cell numbers (growth curve) ([4]; at 4, 6 and 8 days vs untreated)	induction of GPR158 protein ([5]; Dox 100 ng/mL, at 4, 6 and 8 days (data not shown)) [fold]	increase in GPR158 protein levels ([5]; Dox 500 ng/mL, 3 days) [fold]
C[C@]12CCC(=O)C[C@@H]1CC[C@@H]1[C@@H]2CC[C@]2(C)[C@@H](O)CC[C@@H]12 [DHT, dihydrotestosterone]	increased significantly	AR protein stabilization	3-4 fold	3-4 fold	increased significantly	AR protein stabilization	no effect	not in C4-2B cells	increased significantly	–	–	–	–
C[C@H]1c2cccc(O)c2C(=O)C2=C(O)[C@]3(O)C(=O)C(C(N)=O)=C(O)[C@@H](N(C)C)[C@@H]3[C@@H](O)[C@@H]21 [Dox, doxycycline]	–	–	–	–	–	–	–	–	–	2.25	approximately 2 fold	3	~6
